50 compounds from the Kinase Knowledgebase extract (Sharma et al. 2016) can be followed below.

Structures are written as SMILES.

One experiment has as its system MAPK14 (BALB/cJ mice). The experiment is described as follows: In vivo Inhibition of LPS-induced TNF-alpha Production. As to conditions: dose or concentration not given here.
The target of the next experiment is MAPK14 (human) (UniProt Q16539). In words: In vitro Inhibition of TNF-alpha Production in PBMC Cells.
Chain of MAPK14 (human) (Q16539 whole entry, looked up): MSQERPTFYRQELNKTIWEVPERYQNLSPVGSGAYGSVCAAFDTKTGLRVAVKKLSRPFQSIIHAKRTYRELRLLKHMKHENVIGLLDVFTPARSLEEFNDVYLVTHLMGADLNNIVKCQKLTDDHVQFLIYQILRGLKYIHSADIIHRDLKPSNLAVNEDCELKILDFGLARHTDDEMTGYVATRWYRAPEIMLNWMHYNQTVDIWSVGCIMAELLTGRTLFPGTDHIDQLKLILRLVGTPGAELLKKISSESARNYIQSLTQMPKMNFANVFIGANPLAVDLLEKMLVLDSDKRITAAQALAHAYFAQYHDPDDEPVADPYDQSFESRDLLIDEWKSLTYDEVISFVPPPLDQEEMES

By inhibition is commonly meant the relative decrease from the control value, in per cent. As for `COC(=O)c1c(-c2ccc(F)cc2)c(-c2ccncc2)c(-c2ccncc2)n1C`, the inhibition with MAPK14 (BALB/cJ mice) turned out to be 51%.

In general, IC50 refers to the concentration needed to halve the response being measured. Turning to `Cn1c(C(=O)OC(C)(C)C)c(-c2ccc(F)cc2)c(-c2ccncc2)c1N1CCNCC1`, the inhibition in the experiment on MAPK14 (BALB/cJ mice) was found to be 25%. The 50% inhibitory concentration (IC50) at MAPK14 (human) turned out to be 420 nM.

As to `CON(C)C(=O)c1c(-c2ccc(F)cc2)c(-c2ccncc2)c(N2CCN(C(=O)OC(C)(C)C)CC2)n1C`, the inhibition in the experiment on MAPK14 (BALB/cJ mice) is 45%. For the same compound, the IC50 against MAPK14 (human) worked out at 72 nM.

Compound `Cn1cc(-c2ccncc2)c(-c2ccc(F)cc2)c1C#N` displayed a half-inhibitory concentration (IC50) against MAPK14 (human) of 171 nM.

`Cn1cc(-c2ccncc2)c(-c2ccc(F)cc2)c1C(=O)NCC(=O)c1ccccc1` came in with an IC50 against MAPK14 (human) of 157 nM. This IC50 and that of the compound before are within 1.5-fold of each other.

Consider `CCn1c(C(=O)OC)c(-c2ccc(F)cc2)c(-c2ccncc2)c1N(C)CCN1CCOCC1`, for which the half-inhibitory concentration (IC50) on MAPK14 (human) amounted to 105 nM.

Regarding `O=C1OCCn2cc(-c3ccncc3)c(-c3ccc(F)cc3)c21`, the concentration for half-maximal inhibition (IC50) against MAPK14 (human) was 160 nM.

The compound `CCCn1c(NCCN2CCOCC2)c(-c2ccncc2)c(-c2ccc(F)cc2)c1C(=O)OC` registered an IC50 on MAPK14 (human) of 589 nM.

At MAPK14 (human), `COC(=O)c1c(-c2ccc(F)cc2)c(-c2ccncc2)c(NCCNC(C)=O)n1C` came in with a half-inhibitory concentration (IC50) of 1690 nM.

In the case of `CC(=O)N1CCN(c2c(-c3ccncc3)c(-c3ccc(F)cc3)c(-c3nnco3)n2C)CC1`, the inhibition with MAPK14 (BALB/cJ mice) turned out to be 19%.

`Fc1ccc(-c2c[nH]c(CNCc3ccccc3)c2-c2ccncc2)cc1` yielded a half-inhibitory concentration (IC50) against MAPK14 (human) of 6 nM.

At MAPK14 (human), `Cn1cc(-c2ccncc2)c(-c2ccc(F)cc2)c1-c1ncc(-c2ccccc2)o1` yielded an IC50 of 1030 nM.

Take `COC(=O)C1CCn2c(I)c(-c3ccncc3)c(-c3ccc(F)cc3)c2C1=O` (configuration not stated): in the experiment on MAPK14 (BALB/cJ mice), the inhibition turned out to be 15%.

On to `COC(=O)c1c(-c2ccc(F)cc2)c(-c2ccncc2)c(NCCNC(=O)OC(C)(C)C)n1C`, for which, on MAPK14 (human), the IC50 is 1640 nM.

Turning to `COC(=O)c1c(-c2ccc(F)cc2)c(-c2ccncc2)c(NCCN2CCSCC2)n1C`, the IC50 against MAPK14 (human) is 69 nM.

On MAPK14 (human), `CC(=O)c1c(-c2ccc(F)cc2)c(-c2ccncc2)cn1C` registered an IC50 of 597 nM. Against the preceding compound, the IC50 is about 8.7-fold higher.

Take `COC(=O)c1c(-c2ccc(F)cc2)c(-c2ccncc2)c(Nc2ccc3c(c2)N(C(C)=O)CC3)n1C`: the 50% inhibitory concentration (IC50) at MAPK14 (human) stood at 650 nM.

At MAPK14 (human), `CC(O)c1c(-c2ccc(F)cc2)c(-c2ccncc2)cn1C` (configuration not stated) showed a 50% inhibitory concentration (IC50) of 1450 nM.

`COC(=O)c1c(-c2cccc(F)c2)c(-c2ccncc2)cn1C` came in with an IC50 against MAPK14 (human) of 64 nM.

As to `O=C1CCCn2cc(-c3ccncc3)c(-c3ccc(F)cc3)c21`, the half-inhibitory concentration (IC50) on MAPK14 (human) is 150 nM.

Regarding `CCOC(=O)c1c(-c2ccc(F)cc2)c(-c2ccncc2)cn1C`, at MAPK14 (human), the IC50 was 125 nM.

As for `CN(C)C(=O)c1c(-c2ccc(F)cc2)c(-c2ccncc2)c(N2CCNCC2)n1C`, the half-maximal inhibitory concentration (IC50) on MAPK14 (human) is 120 nM.

On to `COC(=O)c1c(-c2ccc(F)cc2)c(-c2ccncc2)cn1CCN1CCOCC1`, for which the IC50 against MAPK14 (human) came to 10000 nM.

In turn, `OCCNCc1[nH]cc(-c2ccc(F)cc2)c1-c1ccncc1` had a concentration for half-maximal inhibition (IC50) against MAPK14 (human) of 148 nM.

Consider `C[C@H](Nc1nccc(-c2c[nH]cc2-c2ccc(F)cc2)n1)c1ccccc1`, for which the IC50 at MAPK14 (human) was 3 nM.

The compound `CNC(=O)c1c(-c2ccc(F)cc2)c(-c2ccncc2)cn1C` registered an IC50 against MAPK14 (human) of 1480 nM. This IC50 is about 490-fold higher than that of the compound before.

For `COC(=O)c1c(-c2ccc(F)cc2)c(-c2ccncc2)c(NCCc2ccncc2)n1C`, the IC50 against MAPK14 (human) came out at 145 nM.

Compound `COC(=O)c1c(-c2ccc(F)cc2)c(-c2ccncc2)c(NC2CCN(Cc3ccccc3)CC2)n1C` gave an IC50 on MAPK14 (human) of 1310 nM.

For the compound `COC(=O)c1c(-c2ccc(F)cc2)c(-c2ccncc2)c(N2CCN(C(=O)OC(C)(C)C)CC2)n1C`, on MAPK14 (human), the IC50 amounted to 4260 nM.

Take `CCCN1CCN(c2c(-c3ccncc3)c(-c3ccc(F)cc3)c(C(=O)OC)n2C)CC1`: the IC50 against MAPK14 (human) amounted to 901 nM.

Take `COC(=O)c1c(-c2ccc(F)cc2)c(-c2ccncc2)c(N2CCN(CC3CCCCC3)CC2)n1C`: the IC50 on MAPK14 (human) was 573 nM.

In turn, `COC(=O)c1c(-c2ccc(F)cc2)c(-c2ccncc2)c(NC(C)=O)n1C` had a half-maximal inhibitory concentration (IC50) against MAPK14 (human) of 1490 nM.

Compound `CCOC(=O)c1c(-c2ccc(F)cc2)c(-c2ccncc2)c(Br)n1C` showed an IC50 at MAPK14 (human) of 86 nM.

As to `N#Cc1[nH]cc(-c2ccncc2)c1-c1ccc(F)cc1`, at MAPK14 (human), the IC50 is 47 nM. Compared with the last compound, the IC50 is about 1.8-fold lower.

On to `Cn1c(CO)c(-c2ccc(F)cc2)c(-c2ccncc2)c1N1CCN(C(=O)OC(C)(C)C)CC1`, for which the inhibition in the experiment with MAPK14 (BALB/cJ mice) came out at 83%.

In the case of `Cn1c(C#N)c(-c2ccc(F)cc2)c(-c2ccncc2)c1NCCN1CCOCC1`, the IC50 against MAPK14 (human) was 351 nM.

`CCCCNCc1c(-c2ccncc2)c(-c2ccc(F)cc2)cn1C` registered a 50% inhibitory concentration (IC50) at MAPK14 (human) of 1080 nM.

For the compound `CCCc1c(-c2ccnc(N[C@@H](C)c3ccccc3)n2)c(-c2ccc(F)cc2)cn1C(=O)OC(C)(C)C`, in the experiment on MAPK14 (BALB/cJ mice), the inhibition was -79%.

With `COC(=O)c1c(-c2ccc(F)cc2)c(-c2ccncc2)c(N2CCC(NC(=O)OC(C)(C)C)C2)n1C` (configuration not stated), at MAPK14 (human), the IC50 came to 1660 nM.

The compound `CCOC(=O)c1[nH]cc(-c2ccc(F)cc2)c1-c1ccncc1` gave a half-maximal inhibitory concentration (IC50) against MAPK14 (human) of 145 nM.

With `COC(=O)c1c(-c2ccc(F)cc2)c(-c2ccncc2)c(NCCN2CCCC2)n1C`, on MAPK14 (human), the IC50 worked out at 1390 nM.

Regarding `COC(=O)c1c(-c2ccc(F)cc2)c(-c2ccncc2)c(N2CCN(C(C)C)CC2)n1C`, at MAPK14 (human), the half-inhibitory concentration (IC50) stood at 1980 nM.

For `Cn1cc(-c2ccncc2)c(-c2ccc(F)cc2)c1-c1nnco1`, on MAPK14 (human), the IC50 stood at 18 nM.

Turning to `CON(C)C(=O)c1c(-c2ccc(F)cc2)c(-c2ccncc2)cn1C`, the IC50 at MAPK14 (human) stood at 5840 nM.

For `CN(CCN1CCOCC1)c1c(-c2ccncc2)c(-c2ccc(F)cc2)cn1C`, the IC50 against MAPK14 (human) amounted to 117 nM.

On MAPK14 (human), `CCOC(=O)c1c(-c2ccc(Br)cc2)c(-c2ccncc2)cn1C` came in with a concentration for half-maximal inhibition (IC50) of 211 nM.

`CCCc1c(-c2ccnc(N[C@@H](C)COC)n2)c(-c2ccc(F)cc2)cn1C(=O)OC(C)(C)C` gave a 50% inhibitory concentration (IC50) against MAPK14 (human) of 50 nM.

As for `COC(=O)c1c(-c2ccc(F)cc2)c(-c2ccncc2)c(NCCN2CCNCC2)n1C`, in the experiment with MAPK14 (BALB/cJ mice), the inhibition is 77%.

As for `COC(=O)c1c(-c2ccc(F)cc2)c(-c2ccncc2)cn1CCN(C)C`, the inhibition in the experiment on MAPK14 (BALB/cJ mice) is -32%.

Compound `CCOC(=O)c1c(-c2ccc(F)cc2)c(-c2ccncc2)c(CCCO)n1C` came in with an IC50 at MAPK14 (human) of 186 nM.
